Source: patent US6602888B2, “Use of α1C specific compounds to treat benign prostatic hyperplasia” (Synaptic Pharmaceutical Corporation, priority 1992, dated 2003)
pKi: −log10 of the molar value. Read-outs that look alike come from different tables or passages of the source. One block for each compound: values may come before it.

Assays:
[1] = molecular target: T1, human 5HT1F receptor (Homo sapiens, UniProt P30939); assay: [3H]serotonin competition binding, 5HT1F receptor
T1 construct: host or cells: LM(tk-) clonal cell line L-5-HT1F
T1 sequence (P30939 1-366): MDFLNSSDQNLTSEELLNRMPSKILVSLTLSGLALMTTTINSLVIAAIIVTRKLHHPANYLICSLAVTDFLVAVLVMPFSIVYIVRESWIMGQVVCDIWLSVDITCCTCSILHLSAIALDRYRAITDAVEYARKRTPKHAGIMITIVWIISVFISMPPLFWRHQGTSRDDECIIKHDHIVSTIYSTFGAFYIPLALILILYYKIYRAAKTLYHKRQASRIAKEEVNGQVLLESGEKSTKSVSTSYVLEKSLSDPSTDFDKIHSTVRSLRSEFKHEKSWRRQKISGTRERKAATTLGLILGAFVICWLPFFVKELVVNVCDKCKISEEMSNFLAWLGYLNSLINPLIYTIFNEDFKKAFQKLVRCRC
Method: 5HT1Dα, 5HT1Dβ, 5HT1E, 5HT1F Receptors: The cell lysates of LM(tk−) clonal cell line stably transfected with the genes encoding each of these 5HT receptor-subtypes were prepared as described above. The cell line for the 5HT1Dα receptor, designated as Ltk-8-30-84, was deposited on Apr. […] The cell for the 5HT1Dβ receptor, designated as Ltk-11, was deposited on Apr. […] The cell line for the 5HT1E receptor, designated 5 HT1E-7, was deposited on Nov. […] The cell line for the 5HT1F receptor, designated L-5-HT1F, was deposited on Dec. […] These preparations were suspended in 50 mM Tris-HCl buffer (pH 7.4 at 37° C.) containing 10 mM MgCl2, 0.2 mM EDTA, 10 μM pargyline, and 0.1% ascorbate.

[2] = molecular target: T2, human α1B adrenergic receptor (Homo sapiens, UniProt P35368); assay: Radioligand binding, [3H]prazosin, cloned human α1B adrenergic receptor
T2 sequence (P35368 1-520): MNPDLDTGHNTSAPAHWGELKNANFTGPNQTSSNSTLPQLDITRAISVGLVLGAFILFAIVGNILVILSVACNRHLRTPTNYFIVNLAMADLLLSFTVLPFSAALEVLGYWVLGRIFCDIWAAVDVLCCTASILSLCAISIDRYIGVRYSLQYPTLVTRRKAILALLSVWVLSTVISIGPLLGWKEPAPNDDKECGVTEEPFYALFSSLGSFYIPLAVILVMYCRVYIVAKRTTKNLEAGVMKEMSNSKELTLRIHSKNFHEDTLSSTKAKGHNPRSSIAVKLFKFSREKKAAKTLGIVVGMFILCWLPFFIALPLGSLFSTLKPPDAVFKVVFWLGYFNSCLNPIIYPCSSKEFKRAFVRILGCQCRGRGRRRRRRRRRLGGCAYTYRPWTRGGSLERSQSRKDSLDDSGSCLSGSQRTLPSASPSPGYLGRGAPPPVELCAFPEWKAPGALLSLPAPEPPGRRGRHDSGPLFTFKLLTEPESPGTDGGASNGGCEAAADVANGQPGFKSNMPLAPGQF

[3] = Table 2, cloned human receptor, read-out: Serotonin 5HT1F (pK1)

Compound: COC(=O)C1=C(C)NC(C)=C(C(=O)OCCCN2CCC(c3ccccc3)(c3ccccc3)CC2)C1c1ccc([N+](=O)[O-])cc1.Cl (centres unmarked) [Compound 8, 2,6-Dimethyl-4-(4-nitrophenyl)-1,4-dihydropyridine-3,5-dicarboxylic acid [3-(4,4-diphenylpiperidin-1-yl)propyl] ester methyl ester hydrochloride]
pKi [1]: < 5.00

Compound: COc1ccccc1N1CCN(CCCNc2c(C)c(=O)n(C)c(=O)n2C)CC1 [5-Methyl-Urapidil, 5-methylurapidil, reference compound]
Alpha-1 Adrenergic a1B (pK1) [2]: 6.77 | Human Alpha-1 Adrenergic (pK1) a1B [2]: 6.77

pKi [1, 3]: < 5.00
Compound: O=C(NC1CCN(CCc2c[nH]c3ccccc23)CC1)c1ccccc1 [Indoramin, reference compound]

Compound: COc1ccc(CCNCC2CCc3ccccc3C2)cc1 (centres unmarked) [Compound 11, 2-[(4-Methoxyphenethyl)aminomethyl]-1,2,3,4-tetrahydronaphthalene]
pKi [2]: 7.14 | Alpha-1 Adrenergic a1B (pK1) ([2]; Table 2, cloned human receptor): 7.14 | pKi [1]: < 5.00

Compound: C=Cc1sc2ccc(Cl)c3c2c1CN(C)CC3 [SKF-104856, 7-Chloro-2-ethenyl-3,4,5,6-tetrahydro-4-methylthieno[4,3,2-ef][3]benzazepine, reference compound]
pKi [1, 3]: < 7.00

Compound: 4-fluoro-4-(8-fluoro-1,3,4,5-tetrahydro-2H-pyrido[4,3-b]indol-2-yl)butyrophenone hydrochloride [Compound A-30360, reference compound]
Alpha-1 Adrenergic a1B (pK1) [2]: 7.86 | Human Alpha-1 Adrenergic (pK1) a1B [2]: 7.86 | Serotonin 5HT1F (pK1) ([1]; Table 2, cloned human receptor): <5.0

Compound: O=C(CCCN1CCC(NC(=O)c2ccccc2)CC1)c1ccc(Cl)cc1 [Compound 7]
Human Alpha-1 Adrenergic (pK1) a1B ([2]; Table 1, cloned human receptor): 7.18 | Alpha-1 Adrenergic a1B (pK1) ([2]; Table 2, cloned human receptor): 7.18 | Serotonin 5HT1F (pK1) ([1]; Table 2, cloned human receptor): <5.0

Compound: O=C(CCCN1CCC(NC(=O)c2ccccc2)CC1)c1ccccc1 [Compound 9]
Human Alpha-1 Adrenergic (pK1) a1B ([2]; Table 1, cloned human receptor): 6.76 | Alpha-1 Adrenergic a1B (pK1) ([2]; Table 2, cloned human receptor): 6.76 | Serotonin 5HT1F (pK1) ([1]; Table 2, cloned human receptor): <5.0
